Laboratory results: article PMC8713167, “New Insights into the Structure–Activity Relationship and Neuroprotective Profile of Benzodiazepinone Derivatives of Neurounina-1 as Modulators of the Na^+/Ca^2+ Exchanger Isoforms” (Journal of Medicinal Chemistry, 2021)

How the values were obtained:
[1] = target: T1, NCX1 (Canis lupus familiaris, UniProt P23685); test: Whole-cell patch-clamp electrophysiology of INCX in BHK-NCX1 cells; assay type: cell-based, dog; details: CTL100; for Patch-clamp-experiments on BHK-NCX1, forward mode: forward mode (−120 mV); for Patch-clamp-experiments on BHK-NCX1, reverse mode: reverse mode (+60 mV)
T1 construct: expressed in transfected cells; host or cells: BHK (baby hamster kidney) cells, stably transfected

[2] = target: T1, NCX1; test: High-throughput screening of NCX1 reverse mode, Fluo-4-loaded BHK-NCX1 cells, Na+-free pulse; assay type: cell-based, dog; details: for Effect on NCX1 activity in the reverse mode (screening, in words): BHK-NCX1, 10 nM and 10 μM; for Fluo-experiments on BHK-NCX1: NCX1 reverse mode, Na+-free, CTL (100), concentration not given (10 nM and 10 μM screened)
[3] = target: T2, NCX3 (Rattus norvegicus, UniProt P70549); test: Whole-cell patch-clamp electrophysiology of INCX in BHK-NCX3 cells; assay type: cell-based; details: compound 4 at 10 μM (Figures 5B and S1)
T2 construct: expressed in transfected cells; host or cells: BHK (baby hamster kidney) cells, stably transfected
T2 sequence (P70549 31-927): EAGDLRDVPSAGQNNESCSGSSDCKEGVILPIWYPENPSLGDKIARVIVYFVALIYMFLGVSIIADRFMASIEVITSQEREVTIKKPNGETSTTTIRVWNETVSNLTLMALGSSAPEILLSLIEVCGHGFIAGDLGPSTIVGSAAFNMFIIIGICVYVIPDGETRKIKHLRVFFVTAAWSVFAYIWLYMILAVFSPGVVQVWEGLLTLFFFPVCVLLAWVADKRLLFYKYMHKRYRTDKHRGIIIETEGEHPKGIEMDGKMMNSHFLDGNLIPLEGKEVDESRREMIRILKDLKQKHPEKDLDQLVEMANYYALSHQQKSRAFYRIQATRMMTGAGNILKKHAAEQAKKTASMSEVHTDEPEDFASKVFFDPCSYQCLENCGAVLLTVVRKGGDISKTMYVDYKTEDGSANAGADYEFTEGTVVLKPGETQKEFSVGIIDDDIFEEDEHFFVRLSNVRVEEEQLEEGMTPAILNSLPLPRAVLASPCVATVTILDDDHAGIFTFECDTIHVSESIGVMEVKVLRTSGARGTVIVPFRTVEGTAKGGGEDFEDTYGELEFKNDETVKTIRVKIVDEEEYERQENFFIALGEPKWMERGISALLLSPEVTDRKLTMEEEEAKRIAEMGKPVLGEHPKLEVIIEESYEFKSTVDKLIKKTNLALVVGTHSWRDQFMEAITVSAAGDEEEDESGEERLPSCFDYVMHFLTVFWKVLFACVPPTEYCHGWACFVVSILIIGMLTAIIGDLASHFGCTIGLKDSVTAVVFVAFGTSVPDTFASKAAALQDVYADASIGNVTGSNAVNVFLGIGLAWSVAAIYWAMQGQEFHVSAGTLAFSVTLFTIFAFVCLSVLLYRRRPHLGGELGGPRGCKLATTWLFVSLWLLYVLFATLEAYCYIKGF

[4] = target: T2, NCX3; test: High-throughput screening of NCX3 reverse mode, Fluo-4-loaded BHK-NCX3 cells, Na+-free pulse; assay type: cell-based; details: CTL (100), concentration not given (10 nM and 10 μM screened)
[5] = target: T1, NCX1; test: Single-cell Fura-2AM video-imaging, Na+-free-induced [Ca2+]i increase in BHK-NCX1 cells; assay type: cell-based, dog; details: for Fura2-experiments on BHK-NCX1 (dose/effect), inhibition / Fura2-experiments on BHK-NCX1 (dose/effect): Na+-free-induced [Ca2+]i increase, reverse mode
Protocol: Furthermore, NCX activity in the reverse mode of operation was also studied on single cell by Fura-2AM video-imaging in BHK-NCX1 and BHK-NCX3 cells (Figures 3 and 4). […] Furthermore, patch-clamp electrophysiology in the whole-cell configuration was used to measure NCX activity both in the forward and reverse mode of operation.
[Ca^2+]i was measured by single-cell computer-assisted video-imaging using Fura-2 acetoxymethyl ester (Fura-2AM). Neurons were loaded with Fura 2AM (10 μM for 30′ at 37 °C). Experiments were carried out with a MicroMax 512BFT cooled CCD camera (Princeton Instruments, Trenton, NJ, USA), LAMBDA 10-2 filter wheeler (Sutter Instruments, Novato, CA), and Meta-Morph/MetaFluor Imaging System software (Universal Imaging, West Chester, PA). Fura-2 fluorescence intensity was measured every 3 s. From each coverslip, 40–60 individual cells were selected and monitored simultaneously. Assuming that the KD for FURA-2 was 224 nM, the equation of Grynkiewicz was used to for calibration.[58]
The NCX reverse mode was determined by switching the normal Krebs medium to Na^+-deficient NMDG+ medium (Na^+-free), as previously reported.[57]
Compounds were solubilized in dimethyl sulfoxide at concentrations of 1 mM, and stock solutions were kept at −20 °C. Appropriate drug dilutions were prepared daily. Statistical analysis was performed with two-way ANOVA, followed by the Newman–Keuls test. Statistical significance was accepted at the 95% confidence level (p < 0.05). Values are expressed as means ± SEM. To obtain EC50’s of newly synthesized compounds and IC50 of compound 4, all data were fitted to the following binding isotherm: […], where X is the drug concentration and n is the Hill coefficient.

[6] = target: T2, NCX3; test: Single-cell Fura-2AM video-imaging, Na+-free-induced [Ca2+]i increase in BHK-NCX3 cells; assay type: cell-based
[7] = test system: rat primary cortical neurons; test: Cell viability (MTT) of primary cortical neurons exposed to OGD followed by RX; assay type: cell-based; details: for Neuroprotection in cortical neurons exposed to OGD + RX (in words): added during OGD and RX, 1 at 10 nM, 14 at 10 μM
Protocol: Once identified as NCX activity modulators, compounds 1, 4, and 14 were tested on cell viability of primary rat cortical neurons exposed to OGD followed by RX, an experimental condition mimicking hypoxic conditions occurring during stroke. These compounds were added during either OGD or RX phases at the corresponding median effective concentration for their NCX stimulating or inhibiting activity.
Rat cortical neurons were prepared and grown as previously reported.[22],[23] During the exposure to hypoxic conditions, primary cortical neurons at 7/10 DIV were incubated with different concentrations of each previously identified compound. Italian Ministry of Health and the local Animal Care Committee of “Federico II” University of Naples (Italy) approved all animal procedures adopted (D. Lgs. March 4th, 2014 from Italian Ministry of Health; DIR 210/63 UE; 12/2018-UT7).
Hypoxic conditions were induced by exposing rat primary cortical neurons to a oxygen- and glucose-free medium in a humidified atmosphere containing 95% nitrogen and 5% CO2, as previously reported.[22],[23] Cell injury was assessed by MTT analysis. Briefly, neurons were incubated with 1 mL of MTT solution (0.5 mg/mL in PBS). After 1 h of incubation at 37 °C, neurons were dissolved in dimethyl sulfoxide and the rate of MTT variation was measured spectrophotometrically at the wavelength of 540 nm.[22],[57]

[8] = test system: primary cortical neurons; test: Cell viability (MTT) of primary cortical neurons exposed to chemical hypoxia followed by RX; assay type: cell-based, rat
Protocol: Considering that this represents a more demanding experimental paradigm, compound 1 may be considered an interesting tool with a neuroprotective profile. In fact, its neuroprotective effect in cortical neurons exposed to hypoxic conditions was similar to that produced by ischemic PC,[30],[31] a short stimulus inducing ischemic tolerance in neurons (Figure 6B). Furthermore, to better investigate the neuroprotective profile of compound 1, it was tested in primary cortical neurons exposed to chemical hypoxia, followed by RX, a detrimental condition undermining the mitochondrial function. […] However, the specific role of each mode of operation in the neuroprotective effect remains obscure and very difficult to define in this experimental paradigm. […] Therefore, the excessive activation of the NCX3 forward mode determining Ca^2+ extrusion may negatively counterbalance the activation of its reverse mode, favoring Ca^2+ entrance.
Rat cortical neurons were prepared and grown as previously reported.[22],[23] […]
Chemical hypoxia was reproduced by exposing primary cortical neurons for 45 min to a glucose-free medium containing oligomycin (5 μg/mL) plus 2-DG (2 mM), followed by RX (3 h). […] Cell injury was assessed by MTT analysis at the end of each experiment.

O=C1CN=C(c2ccccc2)c2cc([N+](=O)[O-])ccc2N1CCN1CCCC1 [Compound 4, 7-Nitro-5-phenyl-1-[2-(pyrrolidin-1-yl)ethyl]-1H-benzo[e][1,4]diazepin-2(3H)-one]
Patch-clamp-experiments on BHK-NCX1, forward mode ([1]; compound 4 at 10 μM (Figure 5)): 85±2.1 | Patch-clamp-experiments on BHK-NCX1, reverse mode ([1]; compound 4 at 10 μM (Figure 5)): 58±1.1 | Effect on NCX1 activity in the reverse mode (screening, in words) [2]: selective NCX1 inhibitor | Fluo-experiments on BHK-NCX1 [2]: 80±2 | Effect on NCX activity in BHK-NCX3 cells (in words) [3]: failed to modulate | Fluo-experiments on BHK-NCX3 [4]: 100 | melting point: 70 to 71 °C | IC50 [5]: 10000 nM | Fura2-experiments on BHK-NCX1 (dose/effect), inhibition ([5]; 1nM): 98±1.3 % of controls | Fura2-experiments on BHK-NCX1 (dose/effect), inhibition ([5]; 10nM): 97±0.3 % of controls | Fura2-experiments on BHK-NCX1 (dose/effect), inhibition ([5]; 10µM): 41±2.1 % of controls | Fura2-experiments on BHK-NCX1 (dose/effect), inhibition ([5]; 30µM): 9±0.5 % of controls

CC1CCCCN1C(=O)CN1C(=O)CN=C(c2ccccc2)c2cc([N+](=O)[O-])ccc21 (stereo not shown) [Compound 14, 1-[2-(2-Methylpiperidin-1-yl)-2-oxoethyl]-7-nitro-5-phenyl-1H-benzo[e][1,4]-diazepin-2(3H)-one]
EC50 [6]: 2000 nM | EC50 [5]: 3.5 nM | Neuroprotection in cortical neurons exposed to OGD + RX (in words) [7]: lack of neuroprotection

O=C1CN=C(c2ccccc2Cl)c2cc([N+](=O)[O-])ccc2N1CN1CCCC1 [Compound 1, 5-(2-Chlorophenyl)-7-nitro-1-(pyrrolidin-1-ylmethyl)-1H-benzo[e][1,4]diazepin-2(3H)-one]
Patch-clamp-experiments on BHK-NCX1, forward mode [1]: 206±2% | Patch-clamp-experiments on BHK-NCX1, reverse mode [1]: 305±3% | Neuroprotection: cell viability after chemical hypoxia + RX ([8]; compound 10 nM during chemical hypoxia (45 min) and RX (3 h), chemical Hyp alone 34, control 100): 46±1.5 % of control | Neuroprotection in cortical neurons exposed to chemical hypoxia + RX (in words) ([8]; compound 1 at 10 nM): significantly reduced cell suffering | Effect on NCX1 activity in the reverse mode (screening, in words) [2]: selective NCX1 activator | Fluo-experiments on BHK-NCX1 [2]: 128±1.3 | Fluo-experiments on BHK-NCX3 [4]: 100 | Fura2-experiments on BHK-NCX1 (dose/effect) ([5]; 1nM): 120±1.3 % of controls | Fura2-experiments on BHK-NCX1 (dose/effect) ([5]; 10nM): 178±2.3 % of controls | Fura2-experiments on BHK-NCX1 (dose/effect) ([5]; 10µM): 190±2.1 % of controls | Neuroprotection in cortical neurons exposed to OGD + RX (in words) [7]: showed a neuroprotective profile | Neuroprotection: cell viability after OGD + RX ([7]; compound 10 nM added during OGD and RX, OGDrx alone 57, normoxic control 100): 71±0.8 % of control | Neuroprotection when preincubated and removed during OGD and RX (in words) ([7]; preincubated, then removed during OGD + RX): continued to protect neurons from hypoxic conditions
